Experimental data reported in patent US11560546B2, “Methods for neural conversion of human embryonic stem cells” (MEMORIAL SLOAN KETTERING CANCER CENTER, priority 2009, dated 2023).
Structures can show the parent of a compound that is named as a salt.

How the values were obtained:
[1] = test system: hESCs; experiment: Neural induction of hESC under adherent conditions, PAX6 expression; assay type: cell-based, human; settings: 10 uM to 30 nM, each added to 10 uM of SB431542
Protocol: The inventors contemplated that establishing an even cell distribution is critical for inducing homogenous neural differentiation of hESCs. To this end, undifferentiated hESC were dissociated into single cells and re-plated onto Matrigel coated dishes in conditioned medium supplement with ROCK inhibitor, Y-27632 (Wananabe et at, 2007). After 72 hours cells were switched from hESC conditions to knock-out serum replacement medium (KSR) containing either Noggin, SB4315242, or both factors and allowed to differentiate for a total of 11 days (FIG. 1.a.). […] Neural induction was monitored by expression of PAX6, an early marker of neuroectodermal differentiation ([…], et al., Annu Rev Neurosci 20:483 (1997). As an alternative to the specific Smad inhibitors used here, it is possible to block both distinct Smad pathways using alternative inhibitors or mechanisms. Dorsomorphin is a small molecule alternative to Noggin, targeting the same pathway. Concentrations ranged from 10 uM to 30 nM, each individual amount added to 10 uM of SB431542. […] Quantitative Real-Time (Dual SMAD). […] For each sample, 1 ug of total RNA was treated for DNA contamination and reverse transcribed using the Quantitect RT kit (Qiagen). Amplified material was detected using Quantitect SYBR green probes and PCR kit (Qiagen) on a Mastercycler RealPlex2 (Eppendorf). […]

[2] = test system: NSB derived neural precursor cells; experiment: Conditioned media patterning of naive neural progenitor cells, qRT-PCR; assay type: cell-based, human
From the text: The FP has important functional roles during development in neural patterning and axonal path finding (Jessell, 2000). To assess the functional properties of hESCs derived FP conditioned media was isolated at days 9 and 11 and tested for expression of Netrin-1 in the medium using ELISA (FIG. 3A). Under normal NSB conditions, Netrin-1 is detectable at Day 9 and decreases at Day 11 while in the NSB+SHH condition, there is a 3.5 fold increase in Netrin-1 levels, increasing at Day 11 (FIG. 3B). SHH is a critical patterning factor secreted by FP cells and specifying ventral cell types in a dose-dependent manner. To test if hESCs derived FP secretes factors that can specify ventral precursor domains, conditioned media (CM) was isolated at Days 9 and 11 of the differentiation. At Day 6, exogenous SHH was removed and cultures were washed to eliminate any exogenously added SHH from the medium. Naïve neural progenitor cells were isolated at Day 11 of the control (NSB) protocol and cultured with either NSB CM or FP CM. After Day 5 of culture in the presence of CM, the inventors probed for the expression of ventral precursor markers and expression of the SHH responsive gene GLI2. […] Increase in the expression of ventral markers was confirmed at the level of protein (FIG. 3C′).

[3] = test system: hESCs; experiment: qRT-PCR of FP, AN and regional markers during FP induction; assay type: cell-based, human
Protocol: (§1) For MS5 induction, established methods previously reported were used (Perrier et al., 2004). Feeder free neural induction was carried out as previously described (Chambers et al., 2009). Briefly, hESCs cultures were disaggregated using accutase for 20 minutes, washed using hESCs media and pre-plated on gelatin for 1 hour at 37° C. in the presence of ROCK inhibitor to remove MEFs. The nonadherent hESCs were washed and plated on matrigel at a density of 20,000 cells/cm2 on matrigel (BD) coated dishes in MEF conditioned hESCs media (CM) spiked with 10 ng/mL of FGF-2 and ROCK-inhibitor. The ROCK inhibitor was withdrawn, and hESCs were allowed to expand in CM for 3 days or until they were nearly confluent. The initial differentiation media conditions included knock out serum replacement (KSR) media with […] TGF-b inhibitor (SB431542, Tocris) and 500 ng/mL of Noggin (R&D). Upon day 5 of differentiation, increasing amounts of N2 media (25%, 50%, 75%) was added to the KSR media every two days while maintaining 500 ng/mL of Noggin and TGF-b inhibitor. For FP induction, Sonic C25II was added at 200 ng/ml.
Total RNA was extracted using an RNeasy kit (Qiagen). For each sample, 1 ug of total RNA was treated for DNA contamination and reverse transcribed using the Superscript III (Invitrogen). Amplified material was detected using Taqman probes and PCR mix (ABI) on a Mastercycler RealPlex2 (Eppendorf). All results were normalized to a HPRT control and are from 3 technical replicates of 3 independent biological samples at each data point.
FOXA2 is a key marker of FP development. However, FOXA2 is also highly expressed in the endoderm. To further characterize the hESC derived putative FP tissue, the inventors performed qRT-PCR analyses for candidate markers at Day 11. […] The inventors further characterized the nature of FOXA2+ putative FP cells using a panel of neural precursor, glial, neuronal and non-neural markers (FIG. 7). […] To distinguish FOXA2 expression in hESC derived FP versus endoderm tissue, the inventors differentiated hESCs to endoderm (D'Amour et al., 2005).
To gain further insight into the factors critical for human FP specification, high resolution temporal gene expression profiles of candidate markers were performed at 6 time points during the 11 day protocol.
The inventors contemplated the use of SIX6 as a putative marker of anterior FP identity. Thus SIX6 status of the hESC derived FP was used to mark respecification in response to known caudalizing agents such as FGF8, Wnt-1, and Retinoic Acid. Each of these caudalizing factors was added in combination with SHH and the resulting tissue was assessed for expression of the FP markers FOXA2 and NETRIN-1, the AN marker BF1, and putative anterior FP marker SIX6.

[4] = test system: hESCs; experiment: Floor plate induction in NSB protocol, FOXA2 immunostaining; assay type: cell-based, human; settings: NSB protocol
Protocol: as §1
Tissue was fixed using 4% paraformaldehyde and Picric acid for 15 minutes, washed with PBS, permeablized using 0.3% Triton X in PBS, and blocked using 10% Donkey Serum. Primary antibodies used for microscopy included PAX6 (Covance), TUJ1 (Covance), ZO1 (Zymed), BF1 (FOXG1, gift E.Lai), TH (Pelfreez), NKX6.1 (DSHB) and FOXA2 (SantaCruz).
Using this protocol, in combination with compositions and methods of the present inventions, the inventors aimed to optimize FP differentiation by adding Sonic C25II at different time points during neural induction and assaying for FOXA2 expression. Differentiation was initiated upon NSB exposure, and Sonic C25II was added at Day 1, Day 3, Day 5, or Day 7 (FIG. 2A).

[5] = most functional assays; cited from earlier work
[6] = test system: rosette-stage neural cells; experiment: Floor plate induction in stromal-feeder (MS5) derived / rosette-stage neural cells; assay type: cell-based, human
Protocol: as §1
hESC derived neural cells at the rosette stage were differentiated into both CNS and PNS progeny and patterned towards multiple cells fates along the A/P and D/V axis (Elkabetz et al., 2008). […] Specification of progenitor cells into FP tissue and cells during mouse development was thought to depend on SHH signaling within early neural lineages. The inventors tested whether rosette-stage neural cells were competent to undergo FP specification in response to SHH. High concentrations of SHH were needed to induce FP during mouse development (Roelink et al., 1994; Ericson et al., 1996). Recombinant N-terminal SHH has a limited activity range due to the lack of posttranslational modifications required for full SHH action. Recently, a modified version of recombinant SHH became available where SHH was tethered to two Isoleucines (Sonic C25II, R&D Systems), mimicking more closely the potency of mammalian SHH protein.
The majority of cells retained rosette cytoarchitecture and staining for the AN marker BF1 as described previously (FIG. 1A) (Elkabetz et al., 2008).
Based on the hypothesis that FP specification in the mouse occurs at early developmental stages, at the time of or prior to neural induction, the inventors repeated SHH induction studies at Day 9, the time of rosette specification, using classic stromal-feeder mediated neural induction protocols (Elkabetz et al., 2008). Under this paradigm the inventors noticed a drastic change in cell morphology restricted to the cells treated with SHH-C25II (FIG. 1B).

[7] = test system: DKK-1; experiment: DKK-1 transcript (qPCR) and protein in medium (ELISA); assay type: cell-based, human; settings: as early as 2 days post treatment
[8] = test system: hESCs; experiment: Placode induction from hESC (Six1 immunocytochemistry, qRT-PCR); assay type: cell-based, human; settings: early addition to SB431542 (1 μM) treated hESCs
From the text: Sensory placodes are developmental structures formed at the interface of early neuroectodermal and non-neural ectoderm tissue. To address whether the N-SB culture system is suitable for the derivation of placodal cells, The inventors first established a set of markers to identify placode identity in human embryonic stem cells (hESCs)-derived cultures. From studies in other model organisms, The inventors postulated a number of candidate markers to identify human placodal precursor during hESC differentiation including member of the Six, Eya, and Dlx family of transcription factors. Six1 marks the pre-placodal region and placodal cells in model organisms but is also expressed in skeletal muscle precursors.
276(1): p. 1-15, herein incorporated by reference. To test whether addition of exogenous BMPs enhances the derivation of Six1+ cells, The inventors exposed SB431542 (1 μM) treated hESCs to various concentration of BMP4. […] 27(3): p. 275-80; Xu, et al., Nat Biotechnol, 2002. 20(12): p. 1261-4, herein incorporated by reference.
We next explored whether simple withdrawal of the BMP inhibitor noggin during N-SB differentiation may enhance the emergence of placodal fates by de-repressing endogenous BMP signaling. […]

Question: With `c1cc(-c2cnn3cc(-c4ccc(OCCN5CCCCC5)cc4)cnc23)ccn1` [Dorsomorphin, 6-[4-[2-(1-Piperidinyl)ethoxy]phenyl]-3-(4-pyridinyl)-pyrazolo[1,5-a]pyrimidine dihydrochloride] as the molecule, how does the “efficiency of neural induction based on the percentage of PAX6+ cells” value [1] read?
Answer: The value was “not as high as used with Noggin/SB431542”.

Question: For `CC1=C2C[C@H]3[C@@H](CC=C4C[C@@H](O)CC[C@@]43C)[C@@H]2CC[C@]12O[C@@H]1C[C@H](C)CN[C@H]1[C@H]2C` [cyclopamine], which “NKX2.1, NKX6.1 and GLI2 expression induced by FP conditioned media” value [2] is on record?
Answer: Its value is “significantly reduced”.

Question: For “Sonic C25II: modified recombinant SHH tethered to two Isoleucines (R&D Systems); 'SHH' in FP induction examples, added at 200 ng/ml”, which “increase in SIX6 mRNA levels” value ([3]; Day 5 of differentiation, FP induction versus NSB control) is on record?
Answer: Its value is “About 50,000 fold”.

Question: And the “PAX6 and BF1 expression” value ([3]; day 7, versus NSB)?
Answer: The value was “drastic reduction in PAX6 and BF1”.

Question: And the “FOXA2 yield with extended treatment beyond Day 11” value [4]?
Answer: Its value is “did not increase FOXA2 yield”.

Question: And the “FOXA2+ cells (of total cells)” value ([4]; added starting at day 1)?
Answer: The value was “about 65%”.

Question: What about the “potency relative to non-modified N-terminal SHH” value [5] of the same molecule?
Answer: The value was roughly 10 times.

Question: And the “concentrations achieving induction of FOXA2+ cells and decrease in BF1 and PAX6” value ([6]; added at Day 9, stromal-feeder neural induction)?
Answer: The value was 125 to 500 ng/mL.

Question: And the “induction of FOXA2+ cells” value ([6]; added at Day 9, stromal-feeder neural induction, Day 21)?
Answer: The value was “robust upregulation of FOXA2+”.

Question: And the “FP marker (FOXA2) expression on established rosette-stage neural cells” value ([6]; dose-response, added at Day 15)?
Answer: The value was “did not yield cells expressing FP markers”.

Question: And the “DKK-1 mRNA and protein levels” value [7]?
Answer: Its value is “drastic reduction”.

B1: BMP4: bone morphogenetic protein-4, exogenous BMP (protein, UniProt P12644 293-408, looked up)
Bone morphogenetic protein 4: SPKHHSQRARKKNKNCRRHSLYVDFSDVGWNDWIVAPPGYQAFYCHGDCPFPLADHLNSTNHAIVQTLVNSVNSSIPKACCVPTELSAISMLYLDEYDKVVLKNYQEMVVEGCGCR
Question: With B1 as the molecule, how does the “cdx2 induction / trophoectodermal differentiation” value [8] read?
Answer: Its value is “induction of cdx2”.
